Measured values published in ChEMBL document CHEMBL1137565, “Discovery of novel 8-azoniabicyclo[3.2.1]octane carbamates as muscarinic acetylcholine receptor antagonists” (Bioorg Med Chem Lett, 2007).

How the values were obtained:
[1] = target: T1, Muscarinic acetylcholine receptor M2 (Homo sapiens, UniProt P08172); test: Antagonist activity at cloned muscarinic M2 receptor expressed in CHO cells by measuring calcium mobilization; assay type: functional, cell-based
T1 sequence (P08172 whole entry): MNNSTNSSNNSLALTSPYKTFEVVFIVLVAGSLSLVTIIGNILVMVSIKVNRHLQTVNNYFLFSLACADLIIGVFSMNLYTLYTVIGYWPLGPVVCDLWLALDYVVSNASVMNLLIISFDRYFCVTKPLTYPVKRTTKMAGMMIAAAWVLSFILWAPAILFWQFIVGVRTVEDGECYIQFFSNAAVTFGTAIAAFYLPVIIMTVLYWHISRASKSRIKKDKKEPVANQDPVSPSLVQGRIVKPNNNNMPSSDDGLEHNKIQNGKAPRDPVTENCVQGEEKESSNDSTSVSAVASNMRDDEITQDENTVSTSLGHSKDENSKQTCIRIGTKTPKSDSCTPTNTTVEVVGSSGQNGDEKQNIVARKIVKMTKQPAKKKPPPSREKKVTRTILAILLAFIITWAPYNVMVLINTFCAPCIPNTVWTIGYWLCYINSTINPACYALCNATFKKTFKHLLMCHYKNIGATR

[2] = target: Muscarinic acetylcholine receptor M3 (Homo sapiens, UniProt P20309); test: Antagonist activity at cloned muscarinic M3 receptor expressed in CHO cells by measuring calcium mobilization; assay type: functional, cell-based
Muscarinic acetylcholine receptor M3, sequence (P20309 whole entry): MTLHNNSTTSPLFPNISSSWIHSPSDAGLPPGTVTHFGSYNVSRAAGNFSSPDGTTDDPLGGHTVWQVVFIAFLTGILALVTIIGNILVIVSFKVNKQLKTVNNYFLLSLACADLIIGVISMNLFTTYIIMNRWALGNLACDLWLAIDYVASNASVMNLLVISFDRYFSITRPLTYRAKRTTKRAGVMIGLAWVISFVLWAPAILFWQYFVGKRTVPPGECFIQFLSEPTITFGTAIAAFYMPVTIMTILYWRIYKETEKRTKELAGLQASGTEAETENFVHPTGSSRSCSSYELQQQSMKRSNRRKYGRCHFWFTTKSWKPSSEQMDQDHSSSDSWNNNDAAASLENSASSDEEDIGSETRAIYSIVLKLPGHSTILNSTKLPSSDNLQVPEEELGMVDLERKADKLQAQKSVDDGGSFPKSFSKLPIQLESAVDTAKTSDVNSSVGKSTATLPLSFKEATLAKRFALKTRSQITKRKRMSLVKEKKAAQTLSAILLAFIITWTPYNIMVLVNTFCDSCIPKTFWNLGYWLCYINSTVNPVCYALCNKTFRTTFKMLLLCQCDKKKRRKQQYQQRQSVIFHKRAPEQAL

[3] = target: Muscarinic acetylcholine receptor M1 and M3 (Homo sapiens) (UniProt P20309+P11229); test: Selectivity for cloned muscarinic M3 receptor over cloned muscarinic M1 receptor
Muscarinic acetylcholine receptor M1 and M3 (Homo sapiens), sequence (P20309 whole entry, looked up, one chain of several): as the sequence (P20309 whole entry) above

[4] = target: Muscarinic acetylcholine receptors; M2 & M3 (Homo sapiens) (UniProt P20309+P08172); test: Selectivity for cloned muscarinic M3 receptor over cloned muscarinic M2 receptor
[5] = target: T2, Muscarinic acetylcholine receptor M1 (Homo sapiens, UniProt P11229); test: Antagonist activity at cloned muscarinic M1 receptor expressed in CHO cells by measuring calcium mobilization; assay type: functional, cell-based
T2 sequence (P11229 whole entry): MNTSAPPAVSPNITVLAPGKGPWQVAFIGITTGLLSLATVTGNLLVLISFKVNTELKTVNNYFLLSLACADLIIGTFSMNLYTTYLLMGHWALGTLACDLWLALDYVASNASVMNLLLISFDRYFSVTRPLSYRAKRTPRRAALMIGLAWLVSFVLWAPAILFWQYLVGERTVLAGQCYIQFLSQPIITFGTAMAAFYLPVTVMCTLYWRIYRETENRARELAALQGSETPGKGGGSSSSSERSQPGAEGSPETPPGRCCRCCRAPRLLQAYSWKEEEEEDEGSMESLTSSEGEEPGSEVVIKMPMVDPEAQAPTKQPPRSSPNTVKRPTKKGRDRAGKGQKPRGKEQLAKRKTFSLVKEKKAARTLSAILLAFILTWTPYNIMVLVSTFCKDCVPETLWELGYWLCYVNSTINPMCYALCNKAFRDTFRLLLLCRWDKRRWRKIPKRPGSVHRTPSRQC

Mus musculus [6] = organism: Mus musculus; test: Effect on metacholine-induced bronchoconstriction in mouse assessed as bronchoprotection at 5 ug after 15 mins; assay type: functional
Mus musculus [7] = organism: Mus musculus; test: Effect on metacholine-induced bronchoconstriction in mouse assessed as bronchoprotection at 5 ug after 5 hrs; assay type: functional

SMILES | IC50 [1] [nM] | IC50 [2] [nM] | Ratio IC50 [3] | Ratio IC50 [4] | IC50 [5] [nM] | Activity (Mus musculus [6]) [%] | Activity (Mus musculus [7]) [%]
Cc1ccsc1CN(C(=O)O[C@H]1C[C@H]2CC[C@@H](C1)[N+]2(C)C)c1ccccc1 | 34.7 | 6.4 | 0.6 | 5.4 | 3.8 |  | 
Cc1ccoc1CN(C(=O)O[C@@H]1C[C@H]2CC[C@@H](C1)N2C)c1ccccc1 | 468 | 428 | 0.8 | 1.1 | 349 |  | 
C[N+]1(C)[C@@H]2CC[C@H]1C[C@H](OC(=O)N(Cc1ccccc1Br)c1ccccc1)C2 | 666 | 407 | 1 | 1.6 | 420 |  | 
C[N+]1(C)[C@@H]2CC[C@H]1C[C@@H](OC(=O)N(Cc1ccsc1)c1ccsc1)C2.[Br-] | 7.2 | 1 | 1.6 | 7.2 | 1.6 | 85 | 
Cc1ccc(CN(C(=O)O[C@@H]2C[C@H]3CC[C@@H](C2)N3C)c2ccccc2)s1 | 410 | 262 | 2 | 0.4 | 518 |  | 
CN1[C@@H]2CC[C@H]1C[C@@H](OC(=O)N(CC1CCCCC1)c1ccsc1)C2 | 271 | 109 | 1.1 | 2.5 | 126 |  | 
CN1[C@@H]2CC[C@H]1C[C@H](OC(=O)N(Cc1ccccc1)c1ccccc1)C2 | 254 | 74.5 | 2.2 | 3.4 | 161 |  | 
C[N+]1(C)[C@@H]2CC[C@H]1C[C@H](OC(=O)N(Cc1ccccc1)c1ccccc1)C2.[Br-] | 48 | 4.6 | 1 | 10.4 | 4.5 | 85 | 
CN1[C@@H]2CC[C@H]1C[C@H](OC(=O)N(Cc1ccccc1)c1cccs1)C2 | 26.5 | 22.9 | 2 | 1.2 | 45.1 |  | 
CN1[C@@H]2CC[C@H]1C[C@@H](OC(=O)N(Cc1ccccc1Br)c1ccccc1)C2 | 1400 | 1140 | 1.2 | 1.2 | 1390 |  | 
COc1ccc(CN(C(=O)O[C@H]2C[C@H]3CC[C@@H](C2)[N+]3(C)C)c2ccccc2)cc1 | 688 | 154 | 0.6 | 4.4 | 86 |  | 
C[N+]1(C)[C@@H]2CC[C@H]1C[C@H](OC(=O)N(Cc1ccoc1)c1ccccc1)C2 | 53.7 | 16 | 0.8 | 3.4 | 12.2 |  | 
C[N+]1(C)[C@@H]2CC[C@H]1C[C@H](OC(=O)N(Cc1cccc(Br)c1)c1ccccc1)C2 | 520 | 342 | 0.6 | 1.5 | 210 |  | 
COc1cccc(CN(C(=O)O[C@@H]2C[C@H]3CC[C@@H](C2)N3C)c2ccccc2)c1 | 1170 | 2140 | 0.6 | 0.5 | 1210 |  | 
CN1[C@@H]2CC[C@H]1C[C@@H](OC(=O)N(Cc1cccc(Br)c1)c1ccccc1)C2 | 2160 | 2310 | 0.9 | 0.9 | 1960 |  | 
C[N+]1(C)[C@@H]2CC[C@H]1C[C@H](OC(=O)N(Cc1ccc(Br)cc1)c1ccccc1)C2 | 400 | 56.6 | 0.6 | 7.1 | 33.4 |  | 
C[N+]1(C)[C@@H]2CC[C@H]1C[C@@H](OC(=O)N(Cc1cccc(C#N)c1)c1ccsc1)C2 | 638 | 137 | 0.4 | 4.7 | 55.6 |  | 
Cc1ccoc1CN(C(=O)O[C@H]1C[C@H]2CC[C@@H](C1)[N+]2(C)C)c1ccccc1 | 229 | 42.3 | 0.4 | 5.4 | 15.2 |  | 

SMILES | IC50 [1] [nM] | IC50 [2] [nM] | Ratio IC50 [3] | Ratio IC50 [4] | IC50 [5] [nM] | Activity (Mus musculus [6]) [%] | Activity (Mus musculus [7]) [%]
CN1[C@@H]2CC[C@H]1C[C@H](OC(=O)N(Cc1ccc(Br)cc1)c1ccccc1)C2 | 1420 | 721 | 1.1 | 2 | 813 |  | 
CN1[C@@H]2CC[C@H]1C[C@@H](OC(=O)N(Cc1ccc(C#N)cc1)c1ccsc1)C2 | 363 | 137 | 0.6 | 2.6 | 75.8 |  | 
C[N+]1(C)[C@@H]2CC[C@H]1C[C@@H](OC(=O)N(Cc1ccc(C#N)cc1)c1ccccc1)C2 | 1490 | 714 | 0.4 | 2.1 | 258 |  | 
CN1[C@@H]2CC[C@H]1C[C@H](OC(=O)N(Cc1ccsc1)c1ccsc1)C2 | 19.6 | 7.2 | 1.9 | 2.7 | 13.8 |  | 
C[N+]1(C)[C@@H]2CC[C@H]1C[C@@H](OC(=O)N(Cc1ccsc1)c1ccccc1)C2.[Br-] | 30.2 | 2.8 | 0.9 | 10.8 | 2.6 | 85 | 
CN1[C@@H]2CC[C@H]1C[C@@H](OC(=O)N(Cc1ccsc1)c1ccccc1)C2 | 90.7 | 27.5 | 2.7 | 3.3 | 73.8 |  | 
C[N+]1(C)[C@@H]2CC[C@H]1C[C@H](OC(=O)N(Cc1cccs1)c1ccccc1)C2.[Br-] | 12.5 | 2.3 | 1 | 5.4 | 2.4 | 85 | 
CN1[C@@H]2CC[C@H]1C[C@@H](OC(=O)N(Cc1ccc(C#N)cc1)c1ccccc1)C2 | 1350 | 1160 | 0.7 | 1.1 | 847 |  | 
CN1[C@@H]2CC[C@H]1C[C@H](OC(=O)N(Cc1ccccc1)c1ccsc1)C2 | 39.1 | 10.9 | 1.7 | 3.6 | 19.1 |  | 
Cc1ccc(CN(C(=O)O[C@@H]2C[C@H]3CC[C@@H](C2)[N+]3(C)C)c2ccccc2)s1 | 60.8 | 21.2 | 0.8 | 2.9 | 15.8 |  | 
COc1cccc(CN(C(=O)O[C@@H]2C[C@H]3CC[C@@H](C2)[N+]3(C)C)c2ccccc2)c1 | 1000 | 972 | 0.6 | 1 | 612 |  | 
CN1[C@@H]2CC[C@H]1C[C@H](OC(=O)N(Cc1cccs1)c1ccccc1)C2 | 38.2 | 20.3 | 2.4 | 1.9 | 48.3 |  | 
COc1ccc(CN(C(=O)O[C@H]2C[C@H]3CC[C@@H](C2)N3C)c2ccccc2)cc1 | 1360 | 776 | 0.9 | 1.8 | 734 |  | 
CN1[C@@H]2CC[C@H]1C[C@H](OC(=O)N(Cc1ccoc1)c1ccccc1)C2 | 82.5 | 57.3 | 1.5 | 1.4 | 84.5 |  | 
Cc1ccsc1CN(C(=O)O[C@H]1C[C@H]2CC[C@@H](C1)N2C)c1ccccc1 | 191 | 108 | 1.1 | 1.8 | 117 |  | 
C[N+]1(C)[C@@H]2CC[C@H]1C[C@H](OC(=O)N(Cc1ccccc1)c1cccs1)C2.[Br-] | 13.8 | 3 | 0.2 | 5.7 | 2.7 | 85 | 80
C[N+]1(C)[C@@H]2CC[C@H]1C[C@H](OC(=O)N(CC1CCCCC1)c1ccsc1)C2 | 55.9 | 11.3 | 0.5 | 5 | 5.8 |  | 
